In patent US11337909B2, “Methods for modulating pigmentation by angiotensin-converting enzyme 2 modulation” (Max-Delbrück-Centrum für Molekulare Medizin in der …, priority 2017, dated 2022):
“Also recorded” adds a separate entry of the source. Where a name gives a salt, the structure may show the parent alone.

Tests used:
[1] = system: B16F10 mouse melanoma cells; assay: Cell culture assay for melanogenesis in B16F10 melanoma cells; format: cell-based
From the text: FIG. 2: Melanogenesis in B16F10 melanoma cells stimulated with α-MSH1-13 and α-MSH1-12. *** p<0.001 compared to control without α-MSH, +++, +p<0.001, p<0.05 α-MSH1-12 compared to the same concentration of α-MSH1-13.
In wild-type mice, the inventors further confirmed previous studies in humans (Ham-ming et al., 2004, Grzegrzolka et al., 2013) showing that ACE2 is expressed in the skin.

Tyrosinase = Tyrosinase mRNA expression in human abdominal skin biopsies; format: cell-based; details: for tyrosinase mRNA expression: FIG. 4
Description: FIG. 4: ACE2 limits the efficiency of αMSH1-13 in human skin; Tyrosinase expression. Tyrosinase (melanin synthesizing enzyme) mRNA expression was measured in human abdominal skin biopsies after treatment with vehicle, 10 nM αMSH1-13, 10 nM αMSH1-13+100 nM of the ACE2-Inhibitor MLN4760, or 100 nM MLN4760 alone.
(§1) Biopsies were treated with vehicle, 10 nM αMSH1-13, 10 nM αMSH1-13+100 nM of the ACE2-Inhibitor MLN4760, or 100 nM MLN4760 alone.

[2] = system: human abdominal skin biopsies; assay: Fontana-Masson melanin staining in human abdominal skin biopsies; format: cell-based; details: FIG. 5
Description: FIG. 5: ACE2 limits the efficiency of αMSH1-13 in human skin; Fontana-Masson staining in human abdominal skin biopsies. Melanin was stained black by Fontana-Masson staining in human abdominal skin biopsies after treatment with vehicle, 10 nM αMSH1-13, or 10 nM αMSH1-13+100 nM of the ACE2-Inhibitor MLN476.
as §1

tyrosinase (TYR) = assay: Tyrosinase (TYR) expression in B16F10 cells by real-time RT-PCR; format: cell-based, mouse; details: 1 nM aMSH + 10 ng/μl DIZE, 48 hours, FIG. 7; dihydrochloride
Description: B16F10 mouse melanoma cells were incubated with 1 nM aMSH, 10 ng/μl diminazene aceturate (DIZE, ACE2 activator) or a combination of both for 48 hours and the expression of the melanin-synthesizing enzyme tyrosinase (TYR) was quantified by real-time RT-PCR; **p<0.01; *p<0.05.
B16F10 mouse melanoma cells were incubated with 1 nM aMSH, 10 ng/μl diminazene aceturate (DIZE, ACE2 activator) or a combination of both for 48 hours and the expression of the melanin-synthesizing enzyme tyrosinase (TYR) was quantified by real-time RT-PCR.

ACE2 [3] = assay: ACE2 expression in B16F10 cells by real-time RT-PCR; format: cell-based, mouse; details: 10 ng/μl DIZE, 48 hours, FIG. 8
Description: B16F10 mouse melanoma cells were incubated with 10 ng/μl diminazene aceturate (DIZE, ACE2 activator) for 48 hours and the expression of ACE2 was quantified by real-time RT-PCR; *p<0.05.

ACE2 [4] = target: T1, ACE2 (Homo sapiens, UniProt Q9BYF1); details: in vitro and in vivo; Shenoy et al; cited from earlier work
Target sequence in this assay (Q9BYF1 18-805, species assumed): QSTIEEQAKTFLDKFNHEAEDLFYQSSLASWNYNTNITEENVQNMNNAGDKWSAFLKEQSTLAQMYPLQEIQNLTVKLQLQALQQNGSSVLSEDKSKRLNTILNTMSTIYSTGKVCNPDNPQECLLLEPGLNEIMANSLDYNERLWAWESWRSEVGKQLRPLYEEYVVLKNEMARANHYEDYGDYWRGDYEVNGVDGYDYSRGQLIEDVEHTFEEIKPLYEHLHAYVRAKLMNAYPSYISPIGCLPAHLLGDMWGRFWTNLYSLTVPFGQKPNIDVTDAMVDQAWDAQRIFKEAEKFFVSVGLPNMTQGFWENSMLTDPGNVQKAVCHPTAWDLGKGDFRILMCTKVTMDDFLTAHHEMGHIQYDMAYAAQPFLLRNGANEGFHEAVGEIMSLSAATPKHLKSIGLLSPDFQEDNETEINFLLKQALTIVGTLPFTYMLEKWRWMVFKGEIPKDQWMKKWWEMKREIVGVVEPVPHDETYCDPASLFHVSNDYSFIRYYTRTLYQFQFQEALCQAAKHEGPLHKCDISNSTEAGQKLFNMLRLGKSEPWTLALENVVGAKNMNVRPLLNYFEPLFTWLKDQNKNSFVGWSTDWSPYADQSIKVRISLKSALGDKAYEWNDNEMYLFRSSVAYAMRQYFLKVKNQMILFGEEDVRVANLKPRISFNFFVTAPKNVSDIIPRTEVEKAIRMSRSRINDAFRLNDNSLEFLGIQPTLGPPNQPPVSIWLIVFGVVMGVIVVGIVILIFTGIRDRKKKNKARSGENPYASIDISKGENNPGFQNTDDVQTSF

ACE2 [5] = target: T1, ACE2; details: Mores et al; read-out: Ki value toward ACE2; cited from earlier work
Target sequence in this assay (Q9BYF1 18-805, species assumed): as above

ACE2 [6] = target: T1, ACE2; details: Hernandez Prada et al; cited from earlier work
Target sequence in this assay (Q9BYF1 18-805, species assumed): as above

ACE2 [7] = target: T1, ACE2; parameters: purchased Enzo life sciences, Plymouth meeting, PA; details: Kulemina and Ostrov; cited from earlier work
Target sequence in this assay (Q9BYF1 18-805): as the sequence (Q9BYF1 18-805, species assumed) above

ACE2 [8] = target: T1, ACE2; details: ACE2 inhibitor; cited from earlier work
Target sequence in this assay (Q9BYF1 18-805, species assumed): as above

## human recombinant ACE2: human recombinant angiotensin-converting enzyme 2
[1]; B16F10 cells, with α-MSH1-13, FIG. 3 upper panel
  effect of added ACE2 on melanogenic activity of α-MSH1-13: Inhibition of the melanogenic effect of α-MSH1-13; also recorded: reduces its melanogenic activity

## α-MSH1-13: α-melanocyte stimulating hormone, 13-amino-acid peptide hormone
Tyrosinase; 10 nM αMSH1-13 vs vehicle
  tyrosinase mRNA expression: stimulates tyrosinase expression
[2]; 10 nM αMSH1-13 vs vehicle
  melanin levels (Fontana-Masson staining): increases melanin levels

## N=C(N)c1ccc(/N=N/Nc2ccc(C(=N)N)cc2)cc1 [DIZE, 4-[2-(4-carbamimidoylphenyl)iminohydrazinyl]benzenecarboximidamide dihydrochloride]
Tyrosinase (TYR)
  tyrosinase (TYR) expression, effect on αMSH stimulation: inhibits the stimulating effect of aMSH; also recorded: inhibits the stimulating effect of αMSH
ACE2 [3]
  ACE2 expression: stimulates ACE2 expression
ACE2 [4]
  enhancement of the enzymatic activity of ACE2: enhance the enzymatic activity of ACE2

## CC(=O)NC(Cc1c[nH]cn1)C(=O)N1CCCC1P(=O)(O)CC(Cc1cc(-c2ccccc2)no1)C(=O)O (stereo not shown) [compound 41]
ACE2 [5]
  Ki: 0.4 nM

## Cc1ccc(S(=O)(=O)Oc2ccc3oc4c(CO)ccc(NCCN(C)C)c4c(=O)c3c2)cc1 [XNT, [8-(2-dimethylaminoethylamino)-5-(hydroxymethyl)-9-oxoxanthen-2-yl]4-methyl-benzenesulfonate]
ACE2 [6]
  enhancement of ACE2 activity: enhance ACE2 activity in a dose-dependent manner
ACE2 [7]
  increase of the velocity of the enzyme (rate of catalysis): approximately twofold

## O=C1OC2(c3ccc(O)cc3Oc3cc(O)ccc32)c2cccc3cccc1c23 [resorcinolnaphthalein]
ACE2 [6]
  enhancement of ACE2 activity: enhance ACE2 activity in a dose-dependent manner

## α-MSH1-12: expected ACE2 digestion product of α-MSH1-13 (SYSMEHFRWGKP)
[1]; B16F10 mouse melanoma cells, FIG. 2
  melanogenic activity relative to α-MSH1-13: at least 100 times less active

## CC(C)C[C@H](N[C@@H](Cc1cncn1Cc1cc(Cl)cc(Cl)c1)C(=O)O)C(=O)O [MLN-4760, (2S)-2-[[(1S)-1-carboxy-2-[3-[(3,5-dichlorophenyl)methyl]imidazol-4-yl]ethyl]amino]-4-methylpentanoic acid]
[1]; B16F10 cells, α-MSH1-13 + human recombinant ACE2, FIG. 3
  effect on the ACE2-mediated inhibition of α-MSH1-13 melanogenic effect: inhibits the effect of ACE2
Tyrosinase; 10 nM αMSH1-13 + 100 nM MLN4760, FIG. 4
  tyrosinase mRNA expression, effect on αMSH1-13 stimulation: This effect is increased by ACE2 inhibition
Tyrosinase; 100 nM MLN4760 alone
  tyrosinase mRNA expression: ACE2 inhibition alone already stimulates tyrosinase expression
[2]; 10 nM αMSH1-13 + 100 nM ACE2 inhibitor
  melanin levels (Fontana-Masson staining), effect on αMSH1-13 increase: This effect is further increased by ACE2 inhibition
ACE2 [8]
  IC50: 0.5 nM
